# Tested on: 857933-349-R-J2-PDC complex spheroid viability
# Assay: Anticancer human tumor 857933-349-R-J2-PDC patient-derived colon adenocarcinoma cell line growth inhibition [POLQ]
# Settings: for IC50: curve of first compound; for viability, T/C: stronger effect = lower value
# In short: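 PDC + HUVEC + MSC complex spheroids; POLQ inhibitors ± partner drugs; top conc. at/near clinical Cmax, else 10 microM (SN-38 1 microM), half-log dilutions; 37 degrees C, 5% CO2.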
# [1] = second compound 0.0316 µM, first compound 0.0316 µM
# [2] = second compound 0.0316 µM, first compound 0.1 µM
# [3] = second compound 0.0316 µM, first compound 0.316 µM
# [4] = second compound 0.0316 µM, first compound 1 µM
# [5] = second compound 0.0316 µM, first compound 3.16 µM
# [6] = second compound 0.0316 µM, first compound 10 µM
# [7] = second compound 0.1 µM, first compound 0.0316 µM
# [8] = second compound 0.1 µM, first compound 0.1 µM
# [9] = second compound 0.1 µM, first compound 0.316 µM
# [10] = second compound 0.1 µM, first compound 1 µM
# [11] = second compound 0.1 µM, first compound 3.16 µM
# [12] = second compound 0.1 µM, first compound 10 µM
# [13] = second compound 0.316 µM, first compound 0.0316 µM
# [14] = second compound 0.316 µM, first compound 0.1 µM
# [15] = second compound 0.316 µM, first compound 0.316 µM
# [16] = second compound 0.316 µM, first compound 1 µM
# [17] = second compound 0.316 µM, first compound 3.16 µM
# [18] = second compound 0.316 µM, first compound 10 µM
# [19] = second compound 1 µM, first compound 0.0316 µM
# [20] = second compound 1 µM, first compound 0.1 µM
# [21] = second compound 1 µM, first compound 0.316 µM
# [22] = second compound 1 µM, first compound 1 µM
# [23] = second compound 1 µM, first compound 3.16 µM
# [24] = second compound 1 µM, first compound 10 µM
# [25] = second compound 3.16 µM, first compound 0.0316 µM
# [26] = second compound 3.16 µM, first compound 0.1 µM
# [27] = second compound 3.16 µM, first compound 0.316 µM
# [28] = second compound 3.16 µM, first compound 1 µM
# [29] = second compound 3.16 µM, first compound 3.16 µM
# [30] = second compound 3.16 µM, first compound 10 µM
# [31] = second compound 10 µM, first compound 0.0316 µM
# [32] = second compound 10 µM, first compound 0.1 µM
# [33] = second compound 10 µM, first compound 0.316 µM
# [34] = second compound 10 µM, first compound 1 µM
# [35] = second compound 10 µM, first compound 3.16 µM
# [36] = second compound 10 µM, first compound 10 µM
# 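Note: spheroids exposed to compounds for seven days before readout.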
smiles,measurement,setting,value
CC1COCCN1c1cc(-c2ccnn2C)c2ccnc(-c3ccn[nH]3)c2n1 (stereo not given) + COC1C(OC(N)=O)C(O)C(Oc2ccc3c(O)c(NC(=O)c4ccc(O)c(CC=C(C)C)c4)c(=O)oc3c2C)OC1(C)C,IC50,second compound 0.0316 µM,0.209 µM
same,IC50,second compound 0.1 µM,0.282 µM
same,IC50,second compound 0.316 µM,0.157 µM
same,IC50,second compound 1 µM,0.257 µM
same,IC50,second compound 3.16 µM,0.17 µM
same,IC50,second compound 10 µM,0.311 µM
same,"viability, T/C",[1],89.2%
same,"viability, T/C",[2],66.2%
same,"viability, T/C",[3],40.3%
same,"viability, T/C",[4],35.8%
same,"viability, T/C",[5],39.2%
same,"viability, T/C",[6],48.6%
same,"viability, T/C",[7],80.3%
same,"viability, T/C",[8],77.6%
same,"viability, T/C",[9],47.2%
same,"viability, T/C",[10],30.7%
same,"viability, T/C",[11],41.6%
same,"viability, T/C",[12],52.8%
same,"viability, T/C",[13],71.9%
same,"viability, T/C",[14],55.7%
same,"viability, T/C",[15],41.2%
same,"viability, T/C",[16],37.1%
same,"viability, T/C",[17],34.2%
same,"viability, T/C",[18],51.7%
same,"viability, T/C",[19],58.1%
same,"viability, T/C",[20],73.3%
same,"viability, T/C",[21],46.4%
same,"viability, T/C",[22],33.6%
same,"viability, T/C",[23],56.2%
same,"viability, T/C",[24],50%
same,"viability, T/C",[25],76.4%
same,"viability, T/C",[26],57.5%
same,"viability, T/C",[27],40.6%
same,"viability, T/C",[28],37%
same,"viability, T/C",[29],38%
same,"viability, T/C",[30],48.7%
same,"viability, T/C",[31],65.2%
same,"viability, T/C",[32],63.2%
same,"viability, T/C",[33],50.1%
same,"viability, T/C",[34],39.2%
same,"viability, T/C",[35],49.1%
same,"viability, T/C",[36],50.3%
CC1COCCN1c1cc(C2(S(C)(=N)=O)CC2)nc(-c2ccnc3[nH]ccc23)n1 (stereo not given) + COC1C(OC(N)=O)C(O)C(Oc2ccc3c(O)c(NC(=O)c4ccc(O)c(CC=C(C)C)c4)c(=O)oc3c2C)OC1(C)C,IC50,second compound 0.0316 µM,4.83 µM
same,IC50,second compound 0.1 µM,4.54 µM
same,IC50,second compound 0.316 µM,4.01 µM
same,IC50,second compound 1 µM,4.46 µM
same,IC50,second compound 3.16 µM,4.77 µM
same,IC50,second compound 10 µM,4.93 µM
same,"viability, T/C",[1],105%
same,"viability, T/C",[2],107%
same,"viability, T/C",[3],80.2%
same,"viability, T/C",[4],77.6%
same,"viability, T/C",[5],70.1%
same,"viability, T/C",[6],27.7%
same,"viability, T/C",[7],85.6%
same,"viability, T/C",[8],84.5%
same,"viability, T/C",[9],73.7%
same,"viability, T/C",[10],73.3%
same,"viability, T/C",[11],57.2%
same,"viability, T/C",[12],34.2%
same,"viability, T/C",[13],84.9%
same,"viability, T/C",[14],86.1%
same,"viability, T/C",[15],74.7%
same,"viability, T/C",[16],77.8%
same,"viability, T/C",[17],53.6%
same,"viability, T/C",[18],33%
same,"viability, T/C",[19],101%
same,"viability, T/C",[20],98.7%
same,"viability, T/C",[21],79.1%
same,"viability, T/C",[22],72.1%
same,"viability, T/C",[23],55.2%
same,"viability, T/C",[24],37.9%
same,"viability, T/C",[25],94.6%
same,"viability, T/C",[26],89.5%
same,"viability, T/C",[27],97%
same,"viability, T/C",[28],86.4%
same,"viability, T/C",[29],57.2%
same,"viability, T/C",[30],37.2%
same,"viability, T/C",[31],118%
same,"viability, T/C",[32],79.4%
same,"viability, T/C",[33],85.7%
same,"viability, T/C",[34],77.2%
same,"viability, T/C",[35],55.7%
same,"viability, T/C",[36],38.6%
CCCS(=O)(=O)Nc1ccc(F)c(C(=O)c2c[nH]c3ncc(-c4ccc(Cl)cc4)cc23)c1F + COC1C(OC(N)=O)C(O)C(Oc2ccc3c(O)c(NC(=O)c4ccc(O)c(CC=C(C)C)c4)c(=O)oc3c2C)OC1(C)C,IC50,second compound 0.0316 µM,5.65 µM
same,IC50,second compound 0.1 µM,6.17 µM
same,IC50,second compound 0.316 µM,5.04 µM
same,IC50,second compound 1 µM,5.74 µM
same,IC50,second compound 3.16 µM,5.75 µM
same,IC50,second compound 10 µM,6.76 µM
same,"viability, T/C",[1],73.7%
same,"viability, T/C",[2],113%
same,"viability, T/C",[3],96.1%
same,"viability, T/C",[4],117%
same,"viability, T/C",[5],85%
same,"viability, T/C",[6],15.7%
same,"viability, T/C",[7],96.9%
same,"viability, T/C",[8],112%
same,"viability, T/C",[9],107%
same,"viability, T/C",[10],109%
same,"viability, T/C",[11],103%
same,"viability, T/C",[12],12.1%
same,"viability, T/C",[13],132%
same,"viability, T/C",[14],121%
same,"viability, T/C",[15],76.7%
same,"viability, T/C",[16],99.8%
same,"viability, T/C",[17],85%
same,"viability, T/C",[18],12.4%
same,"viability, T/C",[19],108%
same,"viability, T/C",[20],77.6%
same,"viability, T/C",[21],121%
same,"viability, T/C",[22],94.5%
same,"viability, T/C",[23],89.9%
same,"viability, T/C",[24],13.3%
same,"viability, T/C",[25],108%
same,"viability, T/C",[26],117%
same,"viability, T/C",[27],101%
same,"viability, T/C",[28],95.5%
same,"viability, T/C",[29],89.2%
same,"viability, T/C",[30],16.6%
same,"viability, T/C",[31],93.9%
same,"viability, T/C",[32],83.7%
same,"viability, T/C",[33],93.7%
same,"viability, T/C",[34],82.5%
same,"viability, T/C",[35],87.1%
same,"viability, T/C",[36],30.9%
CNCc1ccc(-c2[nH]c3cc(F)cc4c3c2CCNC4=O)cc1 + COC1C(OC(N)=O)C(O)C(Oc2ccc3c(O)c(NC(=O)c4ccc(O)c(CC=C(C)C)c4)c(=O)oc3c2C)OC1(C)C,IC50,second compound 0.0316 µM,> 10 µM
same,IC50,second compound 0.1 µM,> 10 µM
same,IC50,second compound 0.316 µM,> 10 µM
same,IC50,second compound 1 µM,> 10 µM
same,IC50,second compound 3.16 µM,> 10 µM
same,IC50,second compound 10 µM,> 10 µM
same,"viability, T/C",[1],85.1%
same,"viability, T/C",[2],90%
same,"viability, T/C",[3],93.8%
same,"viability, T/C",[4],89.9%
same,"viability, T/C",[5],87.1%
same,"viability, T/C",[6],69.5%
same,"viability, T/C",[7],103%
same,"viability, T/C",[8],87.7%
same,"viability, T/C",[9],88.9%
same,"viability, T/C",[10],117%
same,"viability, T/C",[11],99.2%
same,"viability, T/C",[12],106%
same,"viability, T/C",[13],88.5%
same,"viability, T/C",[14],96.9%
same,"viability, T/C",[15],102%
same,"viability, T/C",[16],111%
same,"viability, T/C",[17],103%
same,"viability, T/C",[18],92.3%
same,"viability, T/C",[19],97.2%
same,"viability, T/C",[20],97.2%
same,"viability, T/C",[21],67.9%
same,"viability, T/C",[22],83.5%
same,"viability, T/C",[23],117%
same,"viability, T/C",[24],103%
same,"viability, T/C",[25],82.5%
same,"viability, T/C",[26],102%
same,"viability, T/C",[27],90.3%
same,"viability, T/C",[28],87.2%
same,"viability, T/C",[29],104%
same,"viability, T/C",[30],88.8%
same,"viability, T/C",[31],66.3%
same,"viability, T/C",[32],92.3%
same,"viability, T/C",[33],84.3%
same,"viability, T/C",[34],74.9%
same,"viability, T/C",[35],95.3%
same,"viability, T/C",[36],90.5%
COc1ccc([C@@H](O)c2cc(-c3ncnc4cc(N5CCOCC5)ccc34)c(F)cc2Cl)nn1 + COC1C(OC(N)=O)C(O)C(Oc2ccc3c(O)c(NC(=O)c4ccc(O)c(CC=C(C)C)c4)c(=O)oc3c2C)OC1(C)C,IC50,second compound 0.0316 µM,> 10 µM
same,IC50,second compound 0.1 µM,> 10 µM
same,IC50,second compound 0.316 µM,> 10 µM
same,IC50,second compound 1 µM,> 10 µM
same,IC50,second compound 3.16 µM,> 10 µM
same,IC50,second compound 10 µM,> 10 µM
same,"viability, T/C",[1],114%
same,"viability, T/C",[2],102%
same,"viability, T/C",[3],123%
same,"viability, T/C",[4],96.2%
same,"viability, T/C",[5],91.4%
same,"viability, T/C",[6],65.3%
same,"viability, T/C",[7],91.5%
same,"viability, T/C",[8],123%
same,"viability, T/C",[9],87%
same,"viability, T/C",[10],98.7%
same,"viability, T/C",[11],72%
same,"viability, T/C",[12],94.3%
same,"viability, T/C",[13],112%
same,"viability, T/C",[14],102%
same,"viability, T/C",[15],84.5%
same,"viability, T/C",[16],89.2%
same,"viability, T/C",[17],76.1%
same,"viability, T/C",[18],61.1%
same,"viability, T/C",[19],100%
same,"viability, T/C",[20],93.4%
same,"viability, T/C",[21],106%
same,"viability, T/C",[22],79.5%
same,"viability, T/C",[23],89.8%
same,"viability, T/C",[24],65.7%
same,"viability, T/C",[25],89.4%
same,"viability, T/C",[26],118%
same,"viability, T/C",[27],101%
same,"viability, T/C",[28],94.3%
same,"viability, T/C",[29],77.5%
same,"viability, T/C",[30],63.8%
same,"viability, T/C",[31],101%
same,"viability, T/C",[32],93.5%
same,"viability, T/C",[33],107%
same,"viability, T/C",[34],69.5%
same,"viability, T/C",[35],76.4%
same,"viability, T/C",[36],72.3%
